Laboratory results: PMC9747527 (Biochemistry and Biophysics Reports, 2022)
“And” between values parts separate entries of the source, which are not always exact repeats. Equal values may be shown once.

What was measured:
[1] = cited from earlier work
[2] = Biodistribution of DRV administered via intravenous; assay type: in vivo; settings: Balb/c mice; for DRV accumulation cumulatively in the brain / DRV uptake cumulative in liver / DRV uptake cumulative in plasma / DRV accumulation cumulatively for all time points in plasma / DRV accumulation cumulatively for all time points in the brain / DRV concentration in liver (cumulative): cumulative 1, 3, 6, 12 h, mean ± S.E.M.; for concentration at 1 h: both, Balb/c, mouse, brain, other: intranasal (IN), DRV concentration in brain (Mean)

Increase of DRV accumulation in the brain, IN compared to IV delivery ([2]; 2.5 mg/kg, 1 h, p ≤ 0.05)	Increase of DRV accumulation in the brain, IN compared to IV delivery ([2]; 2.5 mg/kg, 3 h, p ≤ 0.05)	DRV accumulation cumulatively in the brain ([2]; 2.5 mg/kg, IN)	DRV uptake cumulative in liver ([2]; 2.5 mg/kg, IN)	DRV uptake cumulative in plasma ([2]; 2.5 mg/kg, IN)	DRV accumulation cumulatively in the brain ([2]; 2.5 mg/kg, IV)	DRV uptake cumulative in liver ([2]; 2.5 mg/kg, IV)	DRV uptake cumulative in plasma ([2]; 2.5 mg/kg, IV)	Lung DRV concentration, IN compared to IV ([2]; 2.5 mg/kg, individual or cumulative time points)	Increase of DRV accumulation in the brain, IN compared to IV delivery ([2]; 25 mg/kg, 1 h, p ≤ 0.001)	DRV accumulation cumulatively for all time points in plasma ([2]; 25 mg/kg, IN)	DRV accumulation cumulatively for all time points in the brain ([2]; 25 mg/kg, IN)	DRV concentration in liver (cumulative) ([2]; 25 mg/kg, IN)	DRV accumulation cumulatively for all time points in plasma ([2]; 25 mg/kg, IV)	DRV accumulation cumulatively for all time points in the brain ([2]; 25 mg/kg, IV)	DRV concentration in liver (cumulative) ([2]; 25 mg/kg, IV)	concentration at 1 h ([2]; 2.5 mg/kg, 2.5 mg/kg, IN, 1 h)	concentration at 1 h ([2]; 25 mg/kg, 25 mg/kg, IN, 1 h)	SMILES	Brain to plasma ratio, IN compared to IV administration [1]
																		CN(C)CCCN=C(N)c1ccc(C(N)=NCCCN(C)C)cc1 [DB213]	significantly high tissue distribution in the brain to plasma ratio
~3 fold	~2 fold	12.08 ± 2.91 ng/g and ~12 ng/g	29.27 ± 4.17 ng/g	19.91 ± 12.65 ng/g	6.91 ± 1.69 ng/g	118.39 ± 28.13 ng/g	81.37 ± 22.04 ng/g	did not significantly increase	~2 fold	320.56 ± 40.04 ng/g	19.74 ± 1.80 ng/g and ~20 ng/g	833.83 ± 242.4 ng/g	899.12 ± 136.93 ng/g	12.84 ± 2.88 ng/g	1085.18 ± 255.0 ng/g	~5 ng/g	~12 ng/g	CC(C)CN(C[C@@H](O)[C@H](Cc1ccccc1)NC(=O)O[C@H]1CO[C@H]2OCC[C@H]21)S(=O)(=O)c1ccc(N)cc1 [DRV, Darunavir]	
